Laboratory results published in patent EP0199840B1, “Use of a diamine for the preparation of a softener for erythrocytes” (Barnikol, Wolfgang, Prof. Dr.Dr., priority 1985, dated 1986).

System: Erythrozyten
Assay: Erythrocyte filtration test: specific filtration time (FZsp) of an 8% suspension of purified erythrocytes through 5 µm polycarbonate (Nuclepore) membrane filters
Type: cell-based, gesunden Probanden
Conditions: for Wirkung auf FZsp compared with Ausführungsbeispiel 1 (result in words): carried out as in Ausführungsbeispiel 1 (0 to 100 mmol/I; 1,5 Stunden; pH=7,4; 22°C; there FZsp reduced to 30% at 50 mmol/I)
Text: Es wurde nun gefunden, daß es, um die Erythrozyten-weichmachende Wirkung einer Substanz mit Hilfe eines Filtrationstests festzustellen, unerlässlich ist, die Erythrozyten quantitativ von den andern Blutzellen abzutrennen, weil auch sehr geringe Zellverunreinigungen den Test übermä-βig stark stören Daher wurde ein Testverfahren einschließlich eines Reinigungsverfahrens mit Hilfe der Dichtezentrifugation in synthetischem Polysaccharid (Ficoll® 400, Deutsche Pharmazia, Freiburg, Bundesrepublik Deutschland) erarbeitet; als Literaturstelle sei hingewiesen auf: Barnikol et al., Funkt, Biol. Med. 1 (1982), 242-244.
Im Prinzip wird hierbei die sogenannte spezifische Filtrierzeit (FZsp) einer 8%igen Erythrozytensuspension an 5 um Polycarbonat (Nuclepore-^@) Membran-filtern bestimmt. Das Meßverfahren wurde insofern gegenüber der ursprünglichen Vorschrift modifiziert, als nunmehr lediglich die Anfangsgeschwindigkeit gemessen wird, also je nach Dauer variable Tropfenzahlen vermessen werden, sowie der Zeitbedarf für eine bestimmte Tropfenzahl, nämlich 10, bereichnet wurde.
Es gilt die Formel [formula] wobei: • t=Filtrierzeit für 10 Tropfen der Suspension • to=Filtrierzeit für 10 Tropfen des Suspensionsmittels • FZsp ist ein Maß für die Steifigkeit.
Erthrozyten von mehreren gesunden Probanden werden wie oben angegeben (Barnikol et al., 1982) präpariert und eine 8 Vol.-%ige Zellsuspension hergestellt unter Zugabe von Glukose (100 mg/dl). Den Suspensionen werden steigende Mengen von DMAEA von 0 bis 100 mmol/I zugesetzt. Die Proben werden 1,5 Stunden unter langsamen Schwenken belassen bei pH=7,4 und 22°C und danach FZsp gemessen: Bei 50 mmol/I wird FZsp auf 30% des Ausgangswertes verringert.

Compound | Wirkung auf FZsp compared with Ausführungsbeispiel 1 (result in words) | also measured
CN(C)CCN [DMAEA, Dimethylaminoethylamin] | – | activity at 50000 µM (Homo sapiens, Erythrocyte, 1.5 h, pH 7.4, 50 mmol/I, 8 Vol.-%ige Zellsuspension with Glukose (100 mg/dl), 1,5 Stunden, pH=7,4, 22°C, read-out: FZsp (spezifische Filtrierzeit), % des Ausgangswertes): 30%
CC(=O)CCCCn1c(=O)c2c(ncn2C)n(C)c1=O [Pentoxifyllin, 3,7-Dimethyl-1-(5-oxohexyl)-xanthin, reference compound] | – | Wirkung auf FZsp (result in words) (0,1 mmol/1 to 15 mmol/I, 22°C, pH=7,40, FZsp not significantly reduced): unwirksam
CN(C)CCN(C)C [TMEDA, Tetramethylethylendiamin] | gleiche Wirkung | –
CCN(CC)CCN(CC)CC [TEEDA, Tetraethylethylendiamin] | gleich Wirkung | –
